According to ChEMBL document CHEMBL1128861 (Bioorg Med Chem Lett, 1995):

What was measured:
[1] = molecular target: 5-hydroxytryptamine receptor 2A (Rattus norvegicus) (UniProt P14842); experiment: Affinity for 5-HT2A receptor of rat tail artery; type: tissue-based
[2] = molecular target: Histamine H1 receptor (Cavia porcellus) (UniProt P31389); experiment: Affinity for H1 histamine receptor of guinea pig ileum; type: tissue-based
[3] = molecular target: Adrenergic receptor alpha-1 (Rattus norvegicus) (UniProt P15823+P23944+P43140); experiment: Affinity for Alpha-1 adrenergic receptor of rat aorta; type: tissue-based
[4] = molecular target: Serotonin 3 (5-HT3) receptor (Homo sapiens) (UniProt P46098+A5X5Y0+O95264+Q70Z44+Q8WXA8); experiment: Binding affinity against 5-hydroxytryptamine 3 receptor of guinea pig ileum; type: tissue-based; settings: Cavia porcellus, target entry is the homologue from another species
[5] = molecular target: Muscarinic acetylcholine receptor M3 (Cavia porcellus) (UniProt Q8VH26); experiment: Affinity for ileal muscarinic M3 receptor of guinea pig ileum; type: tissue-based
Sequence of Muscarinic acetylcholine receptor M3 (Cavia porcellus) (Q8VH26 1-587): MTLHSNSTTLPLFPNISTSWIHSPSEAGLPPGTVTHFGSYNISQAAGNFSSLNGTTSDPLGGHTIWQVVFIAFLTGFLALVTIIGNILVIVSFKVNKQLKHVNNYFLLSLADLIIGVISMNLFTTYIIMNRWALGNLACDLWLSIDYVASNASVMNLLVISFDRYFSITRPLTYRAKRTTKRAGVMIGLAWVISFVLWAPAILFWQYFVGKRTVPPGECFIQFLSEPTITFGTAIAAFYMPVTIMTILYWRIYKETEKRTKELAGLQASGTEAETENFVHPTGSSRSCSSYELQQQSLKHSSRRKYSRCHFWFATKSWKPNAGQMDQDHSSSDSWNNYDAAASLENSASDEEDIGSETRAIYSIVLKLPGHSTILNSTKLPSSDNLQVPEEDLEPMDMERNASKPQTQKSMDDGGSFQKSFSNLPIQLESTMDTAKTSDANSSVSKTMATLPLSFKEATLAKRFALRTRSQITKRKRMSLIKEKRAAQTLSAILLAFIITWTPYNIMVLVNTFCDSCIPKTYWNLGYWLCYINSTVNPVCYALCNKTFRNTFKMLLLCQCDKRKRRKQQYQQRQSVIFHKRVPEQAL

[6] = molecular target: T1, 5-hydroxytryptamine receptor 2A (Rattus norvegicus, UniProt P14842); experiment: Antagonism of 5-HT2A receptor of rat tail artery; type: functional, tissue-based; settings: read-out: pA2 (converted)
T1 sequence (P14842 whole entry): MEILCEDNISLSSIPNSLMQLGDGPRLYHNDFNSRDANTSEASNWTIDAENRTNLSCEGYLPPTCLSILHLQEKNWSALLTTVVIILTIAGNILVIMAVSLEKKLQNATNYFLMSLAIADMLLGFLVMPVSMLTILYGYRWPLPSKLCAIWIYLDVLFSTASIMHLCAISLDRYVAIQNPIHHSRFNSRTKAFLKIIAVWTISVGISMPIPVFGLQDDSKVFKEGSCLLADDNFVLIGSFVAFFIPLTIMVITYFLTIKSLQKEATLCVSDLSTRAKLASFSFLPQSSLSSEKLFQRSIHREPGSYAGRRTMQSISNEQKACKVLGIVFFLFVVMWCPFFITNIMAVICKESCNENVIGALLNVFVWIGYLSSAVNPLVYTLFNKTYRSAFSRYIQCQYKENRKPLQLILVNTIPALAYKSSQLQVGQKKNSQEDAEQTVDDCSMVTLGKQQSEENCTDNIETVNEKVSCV

[7] = molecular target: T2, Adrenergic receptor alpha-1 (Rattus norvegicus, UniProt P15823+P23944+P43140); experiment: Antagonism against Alpha-1 adrenergic receptor of rat aorta; type: functional, tissue-based
T2 sequence (P15823 whole entry): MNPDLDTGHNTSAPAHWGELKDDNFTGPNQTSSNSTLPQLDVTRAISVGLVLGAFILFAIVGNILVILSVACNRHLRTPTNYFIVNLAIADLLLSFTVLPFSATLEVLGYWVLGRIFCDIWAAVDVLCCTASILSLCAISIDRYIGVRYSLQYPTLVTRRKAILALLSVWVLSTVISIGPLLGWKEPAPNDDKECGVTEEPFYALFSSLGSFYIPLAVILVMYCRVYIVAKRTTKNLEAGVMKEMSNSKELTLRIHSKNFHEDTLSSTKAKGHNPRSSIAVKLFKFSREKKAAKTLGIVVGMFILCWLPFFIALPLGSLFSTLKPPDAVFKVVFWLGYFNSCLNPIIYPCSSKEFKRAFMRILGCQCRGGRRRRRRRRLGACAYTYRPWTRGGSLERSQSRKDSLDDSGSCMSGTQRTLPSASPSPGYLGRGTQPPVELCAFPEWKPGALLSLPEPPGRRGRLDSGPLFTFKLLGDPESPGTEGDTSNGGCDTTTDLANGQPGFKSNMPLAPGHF
T2 sequence (P23944 whole entry): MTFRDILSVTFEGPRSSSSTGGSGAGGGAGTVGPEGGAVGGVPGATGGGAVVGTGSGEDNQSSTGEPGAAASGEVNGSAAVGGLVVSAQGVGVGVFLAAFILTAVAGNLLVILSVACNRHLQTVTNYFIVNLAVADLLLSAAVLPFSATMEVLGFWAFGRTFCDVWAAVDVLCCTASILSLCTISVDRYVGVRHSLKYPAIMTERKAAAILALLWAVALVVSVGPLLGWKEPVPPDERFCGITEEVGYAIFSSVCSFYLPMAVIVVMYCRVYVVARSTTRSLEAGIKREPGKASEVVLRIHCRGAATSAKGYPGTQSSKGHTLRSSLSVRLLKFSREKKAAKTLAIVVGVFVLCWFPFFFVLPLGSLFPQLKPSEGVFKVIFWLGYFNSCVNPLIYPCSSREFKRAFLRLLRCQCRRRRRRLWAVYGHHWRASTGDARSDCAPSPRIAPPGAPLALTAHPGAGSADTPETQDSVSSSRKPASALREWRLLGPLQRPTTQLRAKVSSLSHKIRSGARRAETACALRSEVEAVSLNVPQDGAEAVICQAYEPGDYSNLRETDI
T2 sequence (P43140 whole entry): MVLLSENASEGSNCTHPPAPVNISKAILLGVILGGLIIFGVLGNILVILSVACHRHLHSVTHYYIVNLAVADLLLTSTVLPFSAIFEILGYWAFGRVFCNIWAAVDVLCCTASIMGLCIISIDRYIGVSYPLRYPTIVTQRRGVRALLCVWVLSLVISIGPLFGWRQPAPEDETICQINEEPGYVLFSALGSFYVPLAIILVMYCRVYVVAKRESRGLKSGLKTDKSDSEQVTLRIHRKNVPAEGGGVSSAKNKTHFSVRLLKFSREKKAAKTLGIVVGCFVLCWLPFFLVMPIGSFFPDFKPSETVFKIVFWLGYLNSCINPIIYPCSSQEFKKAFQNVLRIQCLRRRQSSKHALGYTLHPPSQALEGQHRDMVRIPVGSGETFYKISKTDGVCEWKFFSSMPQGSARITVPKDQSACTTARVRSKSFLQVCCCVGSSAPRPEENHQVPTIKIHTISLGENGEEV

Histamine H1 receptor = Histamine H1 receptor (Cavia porcellus, UniProt P31389); experiment: Antagonism against H1 histamine receptor of guinea pig ileum; type: functional, tissue-based; settings: read-out: pA2 (converted)
Sequence of Histamine H1 receptor (P31389 whole entry): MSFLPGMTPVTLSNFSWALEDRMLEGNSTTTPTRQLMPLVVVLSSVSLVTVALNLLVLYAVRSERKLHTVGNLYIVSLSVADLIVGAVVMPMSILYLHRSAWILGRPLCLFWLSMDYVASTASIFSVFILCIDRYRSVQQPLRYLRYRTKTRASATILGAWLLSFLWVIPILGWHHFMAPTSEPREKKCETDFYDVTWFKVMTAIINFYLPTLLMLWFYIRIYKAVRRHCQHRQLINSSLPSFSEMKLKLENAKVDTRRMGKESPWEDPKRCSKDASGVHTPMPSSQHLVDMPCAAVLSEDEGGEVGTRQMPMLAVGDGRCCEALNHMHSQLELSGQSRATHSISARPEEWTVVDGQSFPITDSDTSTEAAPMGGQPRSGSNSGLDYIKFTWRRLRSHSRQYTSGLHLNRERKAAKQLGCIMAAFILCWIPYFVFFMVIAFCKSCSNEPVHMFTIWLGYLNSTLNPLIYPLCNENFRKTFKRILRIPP

[8] = molecular target: 5-hydroxytryptamine receptor 2A (Rattus norvegicus) (UniProt P14842); experiment: Binding affinity against 5-HT2A receptor of rat tail artery; type: tissue-based
[9] = molecular target: Muscarinic acetylcholine receptor M3 (Cavia porcellus) (UniProt Q8VH26); experiment: Binding affinity against ileal muscarinic M3 receptor of guinea pig ileum; type: tissue-based
[10] = molecular target: T1, 5-hydroxytryptamine receptor 2A; experiment: Binding affinity towards 5-HT2A receptor of rat tail artery; type: tissue-based

Sequence of Histamine H1 receptor (Cavia porcellus) (P31389 whole entry): as above
Sequence of 5-hydroxytryptamine receptor 2A (Rattus norvegicus) (P14842 whole entry): as the sequence (P14842 whole entry) above

| SMILES | pKB [1] | pKB [2] | pKB [3] | pKB [4] | pKB [5] | Kb [6] [nM] | also measured |
| --- | --- | --- | --- | --- | --- | --- | --- |
| Cn1c2c(c3ccccc31)C(=O)C(CN1CCCCC1)CC2 (configuration not stated) | 5.98 | 5.69 | 6.11 | < 5.3 | 4.98 | – | – |
| Cn1c2c(c3ccccc31)C(=O)C(CN1CCC(C(=O)c3ccc(F)cc3)CC1)CC2 (racemic) [listing 1 of 2 here] | – | 6.92 | 7.96 | < 5.7 | 5.19 | – | – |
| Cn1c2c(c3ccccc31)C(=O)C(CN1CCC(=C(c3ccc(F)cc3)c3ccc(F)cc3)CC1)CC2 (configuration not stated) | 6.3 | 7.41 | 5.81 | – | 5.7 | – | pD2 [4]: 6.08 |
| Cn1c2c(c3ccccc31)C(=O)C(CNCc1ncc[nH]1)CC2 (configuration not stated) | 6.59 | – | – | – | – | – | – |
| COc1ccc2[nH]cc(C3=CCN(CC4CCc5c(c6ccccc6n5C)C4=O)CC3)c2c1 (configuration not stated) | 6.09 | 6.31 | 6.59 | – | – | – | – |
| Cn1c2c(c3ccccc31)C(=O)C(CN1CCN(c3ccc(F)cc3)CC1)CC2 (configuration not stated) | – | 6.74 | 7.8 | < 5.5 | 5.55 | 2.51 | – |
| CN(CCn1c(=O)[nH]c2ccccc2c1=O)CC1CCc2c(c3ccccc3n2C)C1=O (configuration not stated) | 5.5 | 5.9 | 6.45 | < 5.7 | 4.68 | – | – |
| O=C(c1ccc(F)cc1)C1CCN(CCn2c(=O)[nH]c3ccccc3c2=O)CC1 [KETANSERIN] | – | – | – | – | 4.18 | – | pA2 [7]: 8.09; Kb (Histamine H1 receptor): 1.41 nM |
| Cc1nccn1CC1CCc2c(c3ccccc3n2C)C1=O (configuration not stated) | – | 4.37 | 5.29 | – | – | – | pKB [8]: 4.66; pKB [9]: 4.72 |
| Cn1c2c(c3ccccc31)C(=O)C(CN1CCC(C(=O)c3ccc(F)cc3)CC1)CC2 (racemic) [listing 2 of 2 here] | – | – | – | – | – | 0.617 | – |
| Cn1c2c(c3ccccc31)C(=O)C(CN1CCN(c3ccccc3F)CC1)CC2 (configuration not stated) | 7.8 | 6.19 | – | < 5.2 | 4.72 | – | pA2 [7]: 8.75 |
| Cn1c2c(c3ccccc31)C(=O)C(CN1CCC(C(=O)c3ccccc3)CC1)CC2 (configuration not stated) | – | 6.53 | 7.36 | < 5.5 | 5.01 | 4.57 | – |
| Cn1c2c(c3ccccc31)C(=O)C(CN1CCC(c3ccccc3)CC1)CC2 (configuration not stated) | 8.43 | 6.4 | 7.58 | < 5.2 | 4.97 | – | – |
| Cn1c2c(c3ccccc31)C(=O)C(CN1CC=C(c3c[nH]c4ccc(F)cc34)CC1)CC2 (configuration not stated) | 7.22 | 6.6 | 6.49 | – | – | – | – |
| O=C(c1ccc(F)cc1)C1CCNCC1 | – | – | – | – | – | 525 | Ki [10]: 398 nM |
| Cn1c2c(c3ccccc31)C(=O)C(CNc1ncc[nH]1)CC2 (configuration not stated) | 6.73 | – | – | – | – | – | – |
| Cn1c2c(c3ccccc31)C(=O)C(CN1CCC(C(=O)c3ccc(F)cc3)CC1)CC2 (stereo in doubt; (-)-13) [listing 1 of 2 here] | – | – | – | – | – | 0.437 | – |
| Cn1c2c(c3ccccc31)C(=O)C(CNCCc1c[nH]cn1)CC2 (configuration not stated) | 6.75 | – | – | – | – | – | – |
| Cn1c2c(c3ccccc31)C(=O)C(CN1CCC(C(=O)c3ccc(F)cc3)CC1)CC2 (single isomer, unassigned; (+)) [listing 1 of 2 here] | – | – | – | – | – | 64.6 | – |
| Cn1c2c(c3ccccc31)C(=O)C(CN1CC=C(c3c[nH]c4ccccc34)CC1)CC2 (configuration not stated) | – | 6.62 | 7.58 | – | – | 6.31 | – |
| Cn1c2c(c3ccccc31)C(=O)C(CN1CCC(C(=O)c3ccc(F)cc3)CC1)CC2 (single isomer, unassigned; (+)) [listing 2 of 2 here] | – | 6.82 | 7.28 | – | – | – | – |
| Cn1c2c(c3ccccc31)C(=O)C(CN1CCC(C(=O)c3ccc(F)cc3)CC1)CC2 (stereo in doubt; (-)-13) [listing 2 of 2 here] | – | 6.74 | 8.08 | – | – | – | – |
